In patent US6521283B1, “Non-thrombogenic surfaces” (Biocompatibles Limited, priority 1990, dated 2003):

Columns and labels:
recalcified blood = assay: in-use simulation: recalcified blood incubated in catheter segments, clot formation; parameters: species or system human; details: 15 cm catheter segment, frosted region, coated according to Example 2, 37° C., 150 minutes
Procedure: Three 15 cm segments of catheter (frosted region) coated according to Example 2 were prepared with the ends sealed using Eppendorf tubes. 40 ml of blood was collected from an adult volunteer into tri-sodium citrate (32 g/l) using the double syringe technique (the first 5 ml were discarded). 2 ml of 0.025 M calcium chloride in 0.15 M sodium chloride was added to 10 ml of citrated blood. 4 ml of recalcified blood was then added to each of the three catheter segments. The tubes were placed in a 37° C. incubator for 150 minutes. The samples were turned every 30 minutes. After this incubation the blood was drained from each of the catheters. They were then rinsed using PBS to remove any loosely bound material.

platelets = assay: quantitative platelet adhesion test (ATP luminometry) in fresh citrated whole human blood; type: cell-based
Procedure: A quantitative platelet adhesion test was carried out by immersing samples in fresh citrated whole human blood at room temperature for 30 minutes. Tubing samples were prepared in 3 cm lengths sealed at both ends (the blood being introduced into the sample by hypodermic needle), and constantly mixed using a spiral mixer (tests were carried out in triplicate). Blood used in this assay was obtained using the double syringe method.
After incubation the samples were washed in isotonic phosphate buffered saline (PBS) and extracted into 1% trichloro acetate (TCA) (w/v) in 2 mM ethylene diamine tetraacetic acid (EDTA) to liberate ATP from any platelets adhering to the walls of the tubing.
The amount of ATP present in the extractant was estimated using the LKB Pharmacia ATP assay kit and a luminometer.
The number of platelets adhering to the samples was estimated from a standard curve using ATP levels associated with a known number of platelets.

[1] = PE (polyethylene) treated at 10 mg/ml
[2] = PVC thoracic drain catheter, clear region, coated at 10 mg/ml (Example 2)
[3] = PVC thoracic drain catheter, frosted region, coated at 10 mg/ml (Example 2)
[4] = polystyrene petri dish spin-coated at 10 mg/ml (Example 4)

CCCCCCCCCCCCCC(=O)OC[C@H](COP(=O)([O-])OCC[N+](C)(C)C)OC(=O)CCCCCCCCCCCCC [DMPC, dimyristoyl phosphatidyl choline]
drainage of blood and clot remaining in catheter (recalcified blood): Whole blood drained easily. One small clot remained attached to the surface | % Reduction (platelet adhesion vs uncoated PE) (platelets; [1]): 94% | platelets adhered, DONOR 1 (platelets; [1]): 0.91 no. of platelets ×10^6 per 22 mm^2 area of material | platelets adhered, DONOR 2 (platelets; [1]): 1.38 no. of platelets ×10^6 per 22 mm^2 area of material | platelets adhered, DONOR 3 (platelets; [1]): 3.99 no. of platelets ×10^6 per 22 mm^2 area of material | platelets adhered, X̄ (mean of donors) (platelets; [1]): 2.09 no. of platelets ×10^6 per 22 mm^2 area of material | % Reduction (platelet adhesion vs uncoated) (platelets; [2]): 56.1% | platelets adhered, DONOR 1 (platelets; [2]): 15.26 platelets adhered ×10^6 per 3 cm lengths of catheters | platelets adhered, DONOR 2 (platelets; [2]): 8.09 platelets adhered ×10^6 per 3 cm lengths of catheters | platelets adhered, DONOR 3 (platelets; [2]): 16.78 platelets adhered ×10^6 per 3 cm lengths of catheters | platelets adhered, X̄ (mean of donors) (platelets; [2]): 13.38 platelets adhered ×10^6 per 3 cm lengths of catheters | % Reduction (platelet adhesion vs uncoated) (platelets; [3]): 95% | platelets adhered, DONOR 1 (platelets; [3]): 0.31 platelets adhered ×10^6 per 3 cm lengths of catheters | platelets adhered, DONOR 2 (platelets; [3]): 0.11 platelets adhered ×10^6 per 3 cm lengths of catheters | platelets adhered, DONOR 3 (platelets; [3]): 0.56 platelets adhered ×10^6 per 3 cm lengths of catheters | platelets adhered, X̄ (mean of donors) (platelets; [3]): 0.33 platelets adhered ×10^6 per 3 cm lengths of catheters | % Reduction (platelet adhesion vs uncoated) (platelets; [4]): 97% | platelets adhered, DONOR 1 (platelets; [4]): 1.20 no. of platelets ×10^6 adhered per petri dish (50 mm diameter) | platelets adhered, DONOR 2 (platelets; [4]): 0.26 no. of platelets ×10^6 adhered per petri dish (50 mm diameter) | platelets adhered, DONOR 3 (platelets; [4]): 3.78 no. of platelets ×10^6 adhered per petri dish (50 mm diameter) | platelets adhered, X̄ (mean of donors) (platelets; [4]): 1.75 no. of platelets ×10^6 adhered per petri dish (50 mm diameter)
